Measured values taken from ChEMBL document CHEMBL1201862, “PubChem BioAssay data set” (2004).
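Cells were grown in 96-well plates and exposed to each compound for 48 hours at five concentrations; endpoints were interpolated linearly between bracketing concentrations, or set to the highest concentration if not reached. GI50: concentration for 50% inhibition of growth.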 Calls of active or inactive are those of the source. Rule as the data show it: active = GI50 up to about 1.1 µM and inactive = higher.

Legend:
Assay in all cases: NCI anticancer screen, dose series, 48 h
SF-539 = test system: SF-539
HL-60 = test system: HL-60
DU-145 = test system: DU-145
SNB-19 = test system: SNB-19
MDA-N = test system: MDA-N
MDA-MB-231 = test system: MDA-MB-231
RXF 393 = test system: RXF 393
Malme-3M = test system: Malme-3M
NCI-H23 = test system: NCI-H23
COLO 205 = test system: COLO 205
HT-29 = test system: HT-29
A498 = test system: A498
CAKI-1 = test system: CAKI-1
Hs-578T = test system: Hs-578T
TK-10 = test system: TK-10
SK-MEL-5 = test system: SK-MEL-5
A549 = test system: A549
IGROV-1 = test system: IGROV-1
SN12C = test system: SN12C
HOP-92 = test system: HOP-92

Row | Structure (SMILES) | GI50 (SF-539) | GI50 (HL-60) | GI50 (DU-145) | GI50 (SNB-19) | GI50 (MDA-N) | GI50 (MDA-MB-231) | GI50 (RXF 393) | GI50 (Malme-3M) | GI50 (NCI-H23) | GI50 (COLO 205) | GI50 (HT-29) | GI50 (A498) | GI50 (CAKI-1) | GI50 (Hs-578T) | GI50 (TK-10) | GI50 (SK-MEL-5) | GI50 (A549) | GI50 (IGROV-1) | GI50 (SN12C) | GI50 (HOP-92)
1 | BrCC(Br)(c1ccccc1)c1ccccc1-c1cc(-c2ccccc2)cc(-c2ccccc2)n1 (stereo not drawn) | 4.3 µM (inactive) | 1.07 µM (active) | 4.12 µM (inactive) | 4.86 µM (inactive) | 3.01 µM (inactive) | 3.15 µM (inactive) | 2 µM (inactive) | 3.16 µM (inactive) | 3.94 µM (inactive) | 1.43 µM (inactive) | 2.25 µM (inactive) | 4.48 µM (inactive) | 5.87 µM (inactive) | 4.52 µM (inactive) | 5.82 µM (inactive) | 1.55 µM (inactive) | 4.71 µM (inactive) | 3.2 µM (inactive) | 12.3 µM (inactive) | 2.48 µM (inactive)
2 | Cc1cc(S(=O)(=O)Nc2nc(Nc3ccccc3)n[nH]2)c(SCC(=O)O)cc1Cl | > 100 µM (inactive) | > 100 µM (inactive) | > 100 µM (inactive) | > 100 µM (inactive) | > 100 µM (inactive) | > 100 µM (inactive) | > 100 µM (inactive) | > 100 µM (inactive) | > 100 µM (inactive) | > 100 µM (inactive) | > 100 µM (inactive) | > 100 µM (inactive) | > 100 µM (inactive) | > 100 µM (inactive) | > 100 µM (inactive) | > 100 µM (inactive) | > 100 µM (inactive) | > 100 µM (inactive) | > 100 µM (inactive) | > 100 µM (inactive)
3 | CN1CCN(C(=S)N2CCN(C)CC2)CC1 | 10.8 µM (inactive) | > 100 µM (inactive) | > 100 µM (inactive) | > 100 µM (inactive) | > 26.6 µM (inactive) | > 100 µM (inactive) | > 100 µM (inactive) | > 100 µM (inactive) | > 32.1 µM (inactive) | 1.37 µM (inactive) | 1.73 µM (inactive) | 5.62 µM (inactive) | > 100 µM (inactive) | > 100 µM (inactive) | > 19.7 µM (inactive) | > 26.1 µM (inactive) | > 100 µM (inactive) | > 84.3 µM (inactive) | > 100 µM (inactive) | > 100 µM (inactive)
4 | O=c1[nH]c2c(Nc3c4ccccc4nc4ccccc34)c([N+](=O)[O-])c(Nc3c4ccccc4nc4ccccc34)c([N+](=O)[O-])c2[nH]1 | 2.61 µM (inactive) | 2.67 µM (inactive) | 2.67 µM (inactive) | 2.64 µM (inactive) | 2.36 µM (inactive) | 2.06 µM (inactive) | 2.42 µM (inactive) | 1.57 µM (inactive) | 1.26 µM (inactive) | 1.37 µM (inactive) | 0.618 µM (active) | 1.32 µM (inactive) | 2.15 µM (inactive) | 2.27 µM (inactive) | 2.11 µM (inactive) | 2.11 µM (inactive) | 1.55 µM (inactive) | 1.69 µM (inactive) | 1.45 µM (inactive) | 1.67 µM (inactive)
5 | CC1=CC(=O)[C@@H](O)[C@]2(C)[C@H]3[C@@]4(O)OC[C@]35[C@H]([C@@H](C)[C@H]4O)[C@@H](OC(=O)C(C)(C)CO)C(=O)O[C@@H]5C[C@@H]12 | < 0.0153 µM (active) | 0.0243 µM (active) | 0.305 µM (active) | 0.05 µM (active) | 0.0769 µM (active) | 0.363 µM (active) | 0.237 µM (active) | < 0.01 µM (active) | < 0.0179 µM (active) | 1.73 µM (inactive) | 0.207 µM (active) | 1.42 µM (inactive) | 1.08 µM (active) | 0.046 µM (active) | 0.575 µM (active) | < 0.0204 µM (active) | 2.51 µM (inactive) | < 0.0165 µM (active) | 0.191 µM (active) | 0.0887 µM (active)
6 | CCCCCN1CCN(c2ncccn2)CC1 | > 100 µM (inactive) | > 100 µM (inactive) | > 100 µM (inactive) | > 100 µM (inactive) | > 100 µM (inactive) | > 100 µM (inactive) | > 100 µM (inactive) | > 100 µM (inactive) | > 100 µM (inactive) | > 100 µM (inactive) | > 100 µM (inactive) | > 100 µM (inactive) | > 100 µM (inactive) | > 100 µM (inactive) | > 100 µM (inactive) | > 100 µM (inactive) | > 100 µM (inactive) | > 100 µM (inactive) | > 100 µM (inactive) | 48.6 µM (inactive)
7 | CN1CCc2c(sc3ncn(Nc4ccc(Cl)cc4)c(=N)c23)C1 | > 100 µM (inactive) | > 100 µM (inactive) | > 100 µM (inactive) | > 100 µM (inactive) | > 100 µM (inactive) | > 100 µM (inactive) | > 100 µM (inactive) | > 100 µM (inactive) | > 100 µM (inactive) | > 100 µM (inactive) | > 100 µM (inactive) | > 100 µM (inactive) | > 100 µM (inactive) | > 100 µM (inactive) | > 100 µM (inactive) | > 100 µM (inactive) | > 100 µM (inactive) | > 100 µM (inactive) | > 100 µM (inactive) | > 100 µM (inactive)
8 | COc1cc(S(=O)(=O)Nc2nc(-c3ccc(N4C(=O)/C(=C/C=C/c5ccccc5)N=C4c4ccccc4)cc3)cs2)ccc1Cl | > 100 µM (inactive) | 60.7 µM (inactive) | > 100 µM (inactive) | 99.3 µM (inactive) | > 100 µM (inactive) | 34.3 µM (inactive) | 37.6 µM (inactive) | 29.2 µM (inactive) | > 100 µM (inactive) | > 100 µM (inactive) | > 100 µM (inactive) | > 100 µM (inactive) | > 100 µM (inactive) | 36.2 µM (inactive) | > 100 µM (inactive) | 53 µM (inactive) | > 100 µM (inactive) | 37 µM (inactive) | > 100 µM (inactive) | 28.3 µM (inactive)
9 | COC(=O)c1cc(OC)c(OC)c(OC)c1-c1cc2c(cc1C=O)OCO2 | > 10 µM (inactive) | > 10 µM (inactive) | > 10 µM (inactive) | > 10 µM (inactive) | > 10 µM (inactive) | > 10 µM (inactive) | > 10 µM (inactive) | > 10 µM (inactive) | > 10 µM (inactive) | > 10 µM (inactive) | > 10 µM (inactive) | > 10 µM (inactive) | > 10 µM (inactive) | > 10 µM (inactive) | > 10 µM (inactive) | > 10 µM (inactive) | > 10 µM (inactive) | > 10 µM (inactive) | > 10 µM (inactive) | > 10 µM (inactive)
10 | COc1ccccc1C1C2=C(COC2=O)OC(C)(C)Oc2cc3c(cc21)OCO3 (stereo not drawn) | 2.74 µM (inactive) | 1.35 µM (inactive) | 3.57 µM (inactive) | 3.8 µM (inactive) | 0.65 µM (active) | 2.86 µM (inactive) | 1.06 µM (active) | 3.89 µM (inactive) | 3.89 µM (inactive) | 1.04 µM (active) | 3.47 µM (inactive) | 3.06 µM (inactive) | 3.33 µM (inactive) | 4.6 µM (inactive) | 1.69 µM (inactive) | 3.36 µM (inactive) | 5.13 µM (inactive) | 5.35 µM (inactive) | 5.48 µM (inactive) | 8.65 µM (inactive)
11 | CO[C@H]1[C@@H](O)[C@H](O[C@@H]2C[C@H]3CC[C@@H]4[C@H](CC[C@]5(C)[C@@H](C6=CC(=O)OC6)CC[C@]45O)[C@@]3(C)[C@H](OC(C)=O)C2)O[C@@H](C)[C@H]1O | 0.573 µM (active) | 0.402 µM (active) | 0.726 µM (active) | 4.28 µM (inactive) | 1.64 µM (inactive) | 4.2 µM (inactive) | 0.402 µM (active) | 1.18 µM (inactive) | 0.662 µM (active) | 2.06 µM (inactive) | 3.04 µM (inactive) | 1.31 µM (inactive) | 0.533 µM (active) | 2.07 µM (inactive) | 1.17 µM (inactive) | 0.494 µM (active) | 0.384 µM (active) | 1.46 µM (inactive) | 0.552 µM (active) | 2.54 µM (inactive)
12 | N#CC12C(=O)N=C(N)C1(C#N)C(c1ccco1)NC1=C2CCCC1 (stereo not drawn) |  | > 100 µM (inactive) | > 100 µM (inactive) | > 100 µM (inactive) | > 100 µM (inactive) | > 100 µM (inactive) | > 100 µM (inactive) | > 100 µM (inactive) | > 100 µM (inactive) | > 100 µM (inactive) | > 100 µM (inactive) | > 100 µM (inactive) | > 100 µM (inactive) | > 100 µM (inactive) | > 100 µM (inactive) | > 100 µM (inactive) | > 100 µM (inactive) | > 100 µM (inactive) | > 100 µM (inactive) | > 100 µM (inactive)
13 | Cc1cc(S(=O)(=O)/N=C(\NN)NNc2cccc(C(F)(F)F)n2)c(S)cc1Cl | 21.5 µM (inactive) | 27.4 µM (inactive) | 18.5 µM (inactive) | 24.3 µM (inactive) | 14.8 µM (inactive) | 31.4 µM (inactive) | 29 µM (inactive) | 19.1 µM (inactive) |  | 19.5 µM (inactive) | 19.7 µM (inactive) | 22.1 µM (inactive) | 20.8 µM (inactive) | 22.2 µM (inactive) | 26.2 µM (inactive) | 20 µM (inactive) | 22.8 µM (inactive) | > 10 µM (inactive) | 30.6 µM (inactive) | 4.21 µM (inactive)
